From US9770439B2, “Hepatitis C virus inhibitors” (priority 2013, dated 2017)

Assays:
[1] = tested on: HCV replicon, genotype 1a Y93H variant with tyrosine 93 changed to histidine in the NS5A protein; format: cell-based; conditions: genotype 1a Y93H replicon; test compound titrated with compound N47 fixed at 200 nM versus titrated singly
Experimental: Combinations can be examined for synergistic activity using a variety of putative NS5A-targeting compounds and a variety of test compounds. […] The test compound can be chosen from compounds exemplified below, which were prepared by methods known in the art, or from others disclosed in the literature.
Similarly, BMS-790052 can be tested singly and in combination with a fixed amount of compound N47 in the HCV replicon cell based assay consisting of the genotype 1a Y93H variant with tyrosine 93 changed to histidine in the NS5A protein.

[2] = tested on: HCV replicon, genotype 1a L31V variant with leucine 31 changed to valine in the NS5A protein; format: cell-based; conditions: genotype 1a L31V replicon; test compound titrated with compound N47 fixed at 200 nM versus titrated singly

SMILES | Fold - Synergistic G-1a (Y93H) [1] | Fold - Synergistic G-1a (L31V) [2]
O=C(Cc1ccccc1)N1CCCC1c1nc2cc(-c3ccc4nc([C@@H]5CCCN5C(=O)Cc5ccccc5)[nH]c4c3)ccc2[nH]1 (some centres unmarked) | <10 Fold | <10 Fold
CN(C)[C@@H](C(=O)N1CCC[C@H]1C(=O)Nc1cccc(-c2ncc(-c3ccc4nc([C@@H]5CCCN5C(=O)[C@@H](c5ccccc5)N(C)C)[nH]c4c3)o2)c1)c1ccccc1 | 10 Fold | 
Cc1nc2cccc(-c3ncc(-c4ccc5nc([C@@H]6CCCN6C(=O)[C@@H](c6ccccc6)N(C)C)[nH]c5c4)o3)c2[nH]1 |  | >10 Fold
COC(=O)N[C@H](C(=O)N1CCCC1c1nc2ccc(C#CC#Cc3ccc4nc([C@@H]5CCCN5C(=O)[C@@H](NC(=O)OC)C(C)C)[nH]c4c3)cc2[nH]1)C(C)C (some centres unmarked) | >10 Fold | >100 Fold
CC[C@H]1CC[C@@H](c2ncc(-c3ccc(-c4ccc(-c5cnc([C@@H]6CC[C@H](CC)N6C(=O)[C@@H](NC(=O)OC)C(C)C)[nH]5)cc4)cc3)[nH]2)N1C(=O)C(NC(=O)OC)C(C)C (some centres unmarked) | >100 Fold | >100 Fold
COC(=O)N[C@H](C(=O)N1[C@@H]2C[C@@H]2C[C@H]1c1ncc(-c2ccc(C#Cc3ccc(-c4cnc([C@@H]5C[C@H]6C[C@H]6N5C(=O)[C@@H](NC(=O)OC)C(C)C)[nH]4)cc3)cc2)[nH]1)C(C)C | >10 Fold | <10 Fold
COC(=O)N[C@H](C(=O)N1CC[C@H](C)C1c1ncc(-c2ccc(-c3ccc(-c4cnc([C@@H]5[C@@H](C)CCN5C(=O)[C@@H](NC(=O)OC)C(C)C)[nH]4)cc3)cc2)[nH]1)C(C)C (some centres unmarked) | >100 Fold | >100 Fold
COC(=O)N[C@H](C(=O)N1CCCC1c1ncc(C#Cc2ccc3cc(C#Cc4cnc([C@@H]5CCCN5C(=O)[C@@H](NC(=O)OC)C(C)C)[nH]4)ccc3c2)[nH]1)C(C)C (some centres unmarked) | <10 Fold | >10 Fold
COC(=O)N[C@H](C(=O)CN1C(c2ncc(-c3ccc(C#Cc4ccc5c(ccc6[nH]c([C@@H]7C[C@H]8C[C@H]8N7C(=O)[C@@H](NC(=O)OC)C(C)C)nc65)c4)cc3)[nH]2)C[C@H]2C[C@H]21)C(C)C (some centres unmarked) | >10 Fold | <10 Fold
COC(=O)N[C@H](C(=O)CN1[C@@H]2C[C@@H]2C[C@H]1c1nc2ccc3cc(C#Cc4ccc5c(ccc6nc([C@@H]7C[C@H]8C[C@H]8N7C(=O)[C@@H](NC(=O)OC)C(C)C)[nH]c65)c4)ccc3c2[nH]1)C(C)C | >10 Fold | >10 Fold
COC(=O)N[C@H](C(=O)N1CCCC1c1nc2ccc(-c3ccc4cc(-c5ccc6nc([C@@H]7CCCN7C(=O)[C@@H](NC(=O)OC)C(C)C)[nH]c6c5)ccc4n3)cc2[nH]1)C(C)C (some centres unmarked) | >10 Fold | >10 Fold
COC(=O)N[C@H](C(=O)N1C2CC2CC[C@H]1c1ncc(-c2ccc(-c3ccc(-c4cnc([C@@H]5CCC6CC6N5C(=O)[C@@H](NC(=O)OC)C(C)C)[nH]4)cc3)cc2)[nH]1)C(C)C (some centres unmarked) | >100 Fold | >100 Fold
COC(=O)N[C@H](C(=O)N1[C@@H]2C[C@@H]2C[C@H]1C(=O)Nc1ccc(C23CCC4C5CC6(c7ccc(NC(=O)[C@@H]8C[C@H]9C[C@H]9N8C(=O)[C@@H](NC(=O)OC)C(C)C)cc7)CC4C(C2)C(C6)C5C3)cc1)C(C)C | <10 Fold | <10 Fold
COC(=O)N[C@H](C(=O)N1C(c2ncc(-c3ccc(-c4ccc(-c5cnc([C@@H]6CCC7CC7N6C(=O)[C@@H](NC(=O)OC)C(C)C)[nH]5)cc4)cc3)[nH]2)CCC2CC21)C(C)C (some centres unmarked) | >100 Fold | >100 Fold
